Measurements published in patent US8546435B2, “Triazole derivatives with improved receptor activity and bioavailability properties as ghrelin antagonists of growth hormone secretagogue receptors” (AEterna Zentaris GmbH, priority 2010, dated 2013).
Where two headings read alike, the source gives them in different places.

Experiments:
[1] = molecular target: CYP3A4 (Homo sapiens (Human), UniProt P08684); assay: CYP3A4 inhibition in human liver microsomes, direct and metabolism-dependent; assay type: in vitro ADME
Sequence of CYP3A4 (P08684 whole entry): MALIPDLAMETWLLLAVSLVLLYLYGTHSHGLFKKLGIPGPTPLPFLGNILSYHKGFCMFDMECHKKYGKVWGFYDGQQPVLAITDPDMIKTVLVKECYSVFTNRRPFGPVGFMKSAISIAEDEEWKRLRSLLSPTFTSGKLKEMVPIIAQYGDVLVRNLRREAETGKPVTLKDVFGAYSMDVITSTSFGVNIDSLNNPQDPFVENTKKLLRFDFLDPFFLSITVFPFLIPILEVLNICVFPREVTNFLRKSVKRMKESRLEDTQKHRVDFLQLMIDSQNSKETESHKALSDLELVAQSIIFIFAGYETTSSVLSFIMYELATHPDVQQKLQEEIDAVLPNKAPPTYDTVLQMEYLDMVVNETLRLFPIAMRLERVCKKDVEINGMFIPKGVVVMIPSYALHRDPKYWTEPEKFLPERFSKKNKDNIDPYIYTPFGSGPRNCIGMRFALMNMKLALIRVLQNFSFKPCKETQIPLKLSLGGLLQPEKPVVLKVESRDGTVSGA
Method: Direct and metabolism-dependent inhibition of CYP enzymes are assessed with specific marker substrates by a HPLC-based UV detection method in human liver microsomes. Incubations are carried out as doublets with final concentrations ranging from 0.01 to 200 μM (30 min, 37° C.). Metabolism-dependent inhibition was assessed by incubation for 30 minutes in the presence of NADPH prior to the addition of marker substrate to allow the generation of metabolites. Percent inhibition is plotted against concentration to calculate or extrapolate IC50 values from the sigmoid curve.

[2] = molecular target: hERG channel (Homo sapiens (Human), UniProt Q12809); assay: Predictor hERG Fluorescence Polarization Assay; assay type: binding
Sequence of hERG channel (Q12809 whole entry): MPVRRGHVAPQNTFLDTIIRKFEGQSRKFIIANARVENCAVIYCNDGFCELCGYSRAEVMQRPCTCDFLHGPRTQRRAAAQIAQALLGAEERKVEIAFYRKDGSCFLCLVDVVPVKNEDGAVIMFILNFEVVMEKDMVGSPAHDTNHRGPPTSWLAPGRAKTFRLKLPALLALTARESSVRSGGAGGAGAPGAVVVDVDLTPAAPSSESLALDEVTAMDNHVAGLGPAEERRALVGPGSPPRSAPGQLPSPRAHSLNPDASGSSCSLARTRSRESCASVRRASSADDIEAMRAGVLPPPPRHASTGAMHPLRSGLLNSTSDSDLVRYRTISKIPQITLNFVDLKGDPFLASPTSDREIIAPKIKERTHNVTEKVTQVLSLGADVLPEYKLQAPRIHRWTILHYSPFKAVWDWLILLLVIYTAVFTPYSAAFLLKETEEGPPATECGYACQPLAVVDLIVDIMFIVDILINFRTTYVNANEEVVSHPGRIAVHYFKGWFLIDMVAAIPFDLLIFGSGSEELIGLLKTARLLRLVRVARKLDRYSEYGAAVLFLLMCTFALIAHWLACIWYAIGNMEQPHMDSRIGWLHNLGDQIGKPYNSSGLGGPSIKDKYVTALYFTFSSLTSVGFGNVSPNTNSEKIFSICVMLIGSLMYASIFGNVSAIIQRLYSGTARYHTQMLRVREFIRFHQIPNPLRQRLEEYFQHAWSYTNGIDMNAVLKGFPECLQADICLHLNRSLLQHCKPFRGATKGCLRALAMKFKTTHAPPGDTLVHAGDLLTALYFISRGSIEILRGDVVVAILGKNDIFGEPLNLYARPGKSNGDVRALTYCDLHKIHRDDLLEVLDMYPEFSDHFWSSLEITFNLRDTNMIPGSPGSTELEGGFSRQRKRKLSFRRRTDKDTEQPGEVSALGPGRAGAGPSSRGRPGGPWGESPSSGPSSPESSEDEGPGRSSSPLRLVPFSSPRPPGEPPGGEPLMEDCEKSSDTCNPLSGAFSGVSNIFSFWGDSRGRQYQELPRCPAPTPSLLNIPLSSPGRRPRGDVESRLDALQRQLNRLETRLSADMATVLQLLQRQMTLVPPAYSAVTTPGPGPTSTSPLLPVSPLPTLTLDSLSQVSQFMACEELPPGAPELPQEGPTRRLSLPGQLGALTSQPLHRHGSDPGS
Description: The Predictor™ hERG Fluorescence Polarization Assay (Invitrogen, Karlsruhe, GER) determines whether test compounds block the hERG channel [Piper, D. R. et al., Assay Drug Dev Technol. 2008, 6(2):213-23]. The assay uses a membrane fraction containing hERG channel protein (Predictor™ hERG Membrane) and a high-affinity red fluorescent hERG channel ligand, or “tracer” (Predictor™ hERG Tracer Red), in a homogenous, fluorescence polarization (FP)-based format. Compounds that bind to the hERG channel protein (competitors) are identified by their ability to displace the tracer, resulting in a lower fluorescence polarization. The assay was performed according to guidelines of the manufacturer

[3] = molecular target: T1, Human Ghrelin Receptor (GHS-R 1A) (Homo sapiens (Human), UniProt Q92847); assay: Competitive binding, iodinated ghrelin tracer, intact LTK-cells overexpressing GHS-R 1A; details: 60 min at 37° C.
T1 sequence (Q92847 whole entry): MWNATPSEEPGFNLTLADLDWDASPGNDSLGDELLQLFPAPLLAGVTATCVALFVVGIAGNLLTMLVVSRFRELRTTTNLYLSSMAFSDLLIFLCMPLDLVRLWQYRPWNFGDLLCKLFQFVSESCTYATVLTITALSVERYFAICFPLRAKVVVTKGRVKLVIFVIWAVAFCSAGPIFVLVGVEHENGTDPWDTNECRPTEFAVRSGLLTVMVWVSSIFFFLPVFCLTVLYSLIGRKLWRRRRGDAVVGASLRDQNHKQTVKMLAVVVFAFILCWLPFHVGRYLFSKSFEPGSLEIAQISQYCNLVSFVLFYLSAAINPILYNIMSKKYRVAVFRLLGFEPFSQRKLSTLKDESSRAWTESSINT
Description: (§1) Mouse LTK-cells (ATCC CCL-1.3) were stably transfected with a plasmid containing the CMV minimal promoter (CMVmin) linked to three cAMP response elements (CRE) followed by a luciferase reporter gene. Based on this parental cell line, single cell clones stably overexpressing the human, rat or mouse GHS-R 1A have been established and characterized with respect to suitability for the different assay formats.
For receptor competitive binding studies, iodinated ghrelin was used as a tracer at conditions of about 80% saturation binding. Different concentrations of the test compounds were analyzed for displacement of the tracer. For this purpose, the suspension of intact cells plus tracer mix and different test compound concentrations was layered on top of silicon/paraffin oil, incubated for 60 min at 37° C. and subjected to centrifugation. After freezing in liquid nitrogen the cell pellets were separated from the supernatant by cutting the tubes in the intermediate silicon/paraffin oil section and analyzed by γ-radiation analysis. The amount of unspecific binding was determined by including unlabeled ghrelin at 1 μM final concentration.
(§2) IC50 values were determined by using the GraphPad Prism analysis program (GraphPad Software).
(§3) Values given are either single measurements or mean values of up to nine independent experiments performed in duplicate (binding) or quadruplicate (functional assays) measurements.

[4] = Stability in liver microsomes; assay type: in vitro ADME, mouse; details: 37° C./1 mg/ml Liver Microsomes, 10 μM
Method: (§4) Metabolic stability in liver microsomes of different species (in the presence of NADPH, 1 mg/ml microsomal protein) was evaluated at 37° C. over time in triplicates at a test concentration of 10 μM. Loss of parent compound is measured by an HPLC-based UV detection method. For prediction of rat hepatic clearance half-lives (t1/2) were fitted from first-order rate constant k (min^−1) obtained from the slope of time versus In % remaining.

[5] = molecular target: Rat Ghrelin Receptor (GHS-R 1A) (Rattus norvegicus (Rat), UniProt O08725); assay: Calcium release, antagonist; assay type: cell-based
Sequence of Rat Ghrelin Receptor (GHS-R 1A) (O08725 whole entry): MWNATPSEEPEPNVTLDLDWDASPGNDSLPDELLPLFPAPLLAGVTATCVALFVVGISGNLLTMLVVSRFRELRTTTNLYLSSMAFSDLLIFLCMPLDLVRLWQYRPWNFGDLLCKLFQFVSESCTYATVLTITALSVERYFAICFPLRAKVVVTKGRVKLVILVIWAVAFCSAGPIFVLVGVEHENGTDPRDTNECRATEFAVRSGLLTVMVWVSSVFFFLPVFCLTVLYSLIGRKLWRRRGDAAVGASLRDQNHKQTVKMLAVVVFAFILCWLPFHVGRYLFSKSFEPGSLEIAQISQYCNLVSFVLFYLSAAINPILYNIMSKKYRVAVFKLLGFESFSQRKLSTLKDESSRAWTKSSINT
Description: as §1
(§5) For determination of calcium release the respective cell line was loaded with Fluo-4 NW Calcium Assay Kit (Moleculare Probes/Invitrogen # F10741) for 80 min @ 37° C. After 15 minutes of preincubation with different concentrations of the test compounds ghrelin was added and the signal was monitored for 60 seconds by a FlexStation3 microplate reader (Molecular Devices).
as §2
(§6) In the following table 1 results obtained for selected compounds of the invention are presented in comparison to compound 50 disclosed in WO07/020,013. Values given are either single measurements or mean values of up to nine independent experiments performed in duplicate (binding) or quadruplicate (functional assays) measurements.

[6] = molecular target: Mouse Ghrelin Receptor (GHS-R 1A) (Mus musculus (Mouse), UniProt Q99P50); assay: Calcium release, antagonist; assay type: cell-based
Sequence of Mouse Ghrelin Receptor (GHS-R 1A) (Q99P50 whole entry): as the sequence (O08725 whole entry) above, with P30S, A249S counted along it
Description: as §1, §5, §2, §6

[7] = Stability in liver microsomes; assay type: in vitro ADME, human; details: @37° C./1 mg/ml Liver Microsomes, 10 μM
Method: as §4

[8] = molecular target: T1, Human Ghrelin Receptor (GHS-R 1A); assay: CRE/Luc reporter gene assay, antagonist; assay type: cell-based; details: 6 h, 1 μM rolipram
Description: as §1
For the CRE/Luc reporter gene assay, the mouse LTK-cells stably expressing the human GHS-1RA and a luciferase reporter gene under the control of CRE elements and the CMV minimal promoter were incubated for 6 h with 1 μM rolipram in the presence of different concentrations of AEZS-130. Subsequently, cells were lysed and ATP bioluminescence was measured in the luminescence mode on FlexStation3 (Molecular Devices).
as §2, §3

[9] = Stability in liver microsomes; assay type: in vitro ADME, rat; details: @37° C./1 mg/ml Liver Microsomes, 10 μM
Method: as §4

[10] = molecular target: MDR-1 (P-glycoprotein, Pgp) (Homo sapiens (Human), UniProt P08183); assay: Inhibition of MDR1 ATPase (Pgp-Glo assay, SF9 membrane preparations); assay type: biochemical
Sequence of MDR-1 (P-glycoprotein, Pgp) (P08183 whole entry): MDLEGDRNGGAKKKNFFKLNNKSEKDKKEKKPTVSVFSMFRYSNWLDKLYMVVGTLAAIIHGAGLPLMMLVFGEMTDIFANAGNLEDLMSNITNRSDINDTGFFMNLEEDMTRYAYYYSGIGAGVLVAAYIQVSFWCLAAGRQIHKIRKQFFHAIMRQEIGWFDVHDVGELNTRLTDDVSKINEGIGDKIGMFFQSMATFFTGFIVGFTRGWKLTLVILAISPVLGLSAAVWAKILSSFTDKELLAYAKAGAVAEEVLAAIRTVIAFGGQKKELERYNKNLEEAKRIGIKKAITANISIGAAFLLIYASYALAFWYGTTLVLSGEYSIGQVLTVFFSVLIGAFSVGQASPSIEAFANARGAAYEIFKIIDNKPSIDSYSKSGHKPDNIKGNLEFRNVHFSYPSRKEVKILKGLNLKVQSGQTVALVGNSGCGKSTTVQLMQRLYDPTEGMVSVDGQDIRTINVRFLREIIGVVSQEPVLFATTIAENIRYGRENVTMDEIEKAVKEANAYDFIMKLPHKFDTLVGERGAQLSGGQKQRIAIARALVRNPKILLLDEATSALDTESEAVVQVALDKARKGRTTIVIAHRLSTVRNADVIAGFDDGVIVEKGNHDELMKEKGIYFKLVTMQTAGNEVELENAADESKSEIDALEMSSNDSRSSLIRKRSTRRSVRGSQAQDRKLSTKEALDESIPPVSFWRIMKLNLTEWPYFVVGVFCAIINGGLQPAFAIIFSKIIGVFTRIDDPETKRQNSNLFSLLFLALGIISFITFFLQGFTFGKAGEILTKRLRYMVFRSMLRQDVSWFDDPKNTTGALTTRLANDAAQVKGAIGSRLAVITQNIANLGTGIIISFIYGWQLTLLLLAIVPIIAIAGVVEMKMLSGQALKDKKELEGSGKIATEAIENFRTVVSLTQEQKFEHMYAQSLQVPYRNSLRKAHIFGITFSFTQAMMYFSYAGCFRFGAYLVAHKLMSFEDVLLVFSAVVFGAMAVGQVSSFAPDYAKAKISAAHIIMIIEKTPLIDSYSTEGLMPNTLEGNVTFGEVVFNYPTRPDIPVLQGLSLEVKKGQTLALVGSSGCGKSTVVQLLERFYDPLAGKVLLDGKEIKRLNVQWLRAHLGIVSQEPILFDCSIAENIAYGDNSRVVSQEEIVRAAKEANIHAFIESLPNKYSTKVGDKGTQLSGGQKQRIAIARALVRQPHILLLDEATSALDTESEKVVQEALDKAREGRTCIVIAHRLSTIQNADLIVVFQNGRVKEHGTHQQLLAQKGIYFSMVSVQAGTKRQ
Method: For detection of MDR-1 (P-glycoprotein, Pgp) ATPase activity commercially available membrane preparations of MDR-1 overexpressing SF9 insect cells (SB-MDR1-Sf9-ATPase Membrane; 2.5 mg/500 μL; Solvo/tebu-bio #168SB-MDR1-Sf9-ATPase) were used. Since transport by MDR-1 is ATP-dependent, ATP consumption indicates transport activity of MDR-1. ATP consumption is detected as a decrease in luminescence from a second reaction with a recombinant firefly luciferase by using the Pgp-Glo™ Assay Kit (Promega # V3591).

[11] = CaCo-2 permeability assay; assay type: in vitro ADME; details: human; for Papp A→B at 2 h: a to b, read-out: CaCo-2 Assay Papp ab; for Papp A→B at 2 h / Papp B→A at 2 h: 3 or 5 μM, 2 hours at 37° C.; for Papp B→A at 2 h: b to a, read-out: CaCo-2 Assay Papp ba; for efflux ratio at 2 h: read-out: CaCo-2 Assay ba/ab
Method: For the CaCo-2 permeability assay 80.000 CaCo-2 cells (ATCC HTB-37) were seeded in DMEM supplemented with 10% FCS, 1% Penicillin/Streptomycin and 1% non-essential amino acids per 24 well transwell plate (Corning 3397) and were grown for 21 days by changing the media every second day. On day 21 the medium was replaced by HBSS buffer (Invitrogen #14065) supplemented with 0.25% and 1% BSA for the donor and acceptor compartment, respectively. The compounds were added to the respective donor compartment in a concentration of 3 or 5 μM and were incubated for 2 hours at 37° C. The respective compound concentrations were determined by LC-MS analytics using an API 2000. Data analysis was performed as described by Sun and Pang 2008, Drug Metabolism and Disposition 36, 102-123.

[12] = molecular target: T1, Human Ghrelin Receptor (GHS-R 1A); assay: Calcium release, antagonist; assay type: cell-based; details: 15 minutes preincubation, then ghrelin
Description: as §1, §5, §2, §3

[13] = marker substrate midazolam, 30 minutes preincubation with NADPH, read-out: CYP3A4 Inhibition Midazolam Preincubation EC50
[14] = marker substrate midazolam, direct inhibition, human liver microsomes, read-out: CYP3A4 Inhibition Midazolam EC50
[15] = 15 minutes preincubation, then ghrelin, read-out: Rat Ghrelin Receptor Antagonist Calcium Release IC50
[16] = 15 minutes preincubation, then ghrelin, read-out: Mouse Ghrelin Receptor Antagonist Calcium Release IC50

SMILES	EC50 [1, 13]	EC50 [1, 14]	hERG Predictor EC50 [2]	IC50 [3]	Stability in Liver Microsomes Mouse % Remaining (@30 min) [4]	IC50 [5, 15]	IC50 [6, 16]	Stability in Liver Microsomes Human % Remaining after 1 h Incubation [7]	IC50 [8]	Stability in Liver Microsomes Rat % Remaining after 1 h Incubation [9]	Inhibition of MDR1 ATPase EC50 [10]	Papp A→B at 2 h [11]	Papp B→A at 2 h [11]	efflux ratio at 2 h [11]	IC50 [12]	EC50 ([1]; marker substrate testosteron, 30 minutes preincubation with NADPH, read-out: CYP3A4 Inhibition Testosteron Preincubation EC50)	EC50 ([1]; marker substrate testosteron, direct inhibition, human liver microsomes, read-out: CYP3A4 Inhibition Testosteron EC50)	EC50 [2]	IC50 [5]	IC50 [6]
COc1ccc(Cn2c([C@@H](Cc3ccccc3)NC=O)nnc2[C@@H](Cc2c[nH]c3ccccc23)NC(=O)c2ccccn2)cc1.O=C(O)C(F)(F)F [Cpd 5, Pyridine-2-carboxylic acid [(R)-1-[5-((R)-1-formylamino-2-phenyl-ethyl)-4-(4-methoxy-benzyl)-4H-[1,2,4]triazol-3-yl]-2-(1H-indol-3-yl)-ethyl]-amide]	1200 nM	3800 nM	no full dose	3.4 nM	0.0%	290 nM	89.3 nM	0%	8.3 nM	41.9%	no inhibition	1.26 ×10⁻⁶ cm/s	16.8 ×10⁻⁶ cm/s	13.3	3.1 nM	–	–	–	–	–
COc1ccc(Cn2c(CCc3ccccc3)nnc2[C@@H](Cc2c[nH]c3ccccc23)NC(=O)OCC(C)C)cc1.O=C(O)C(F)(F)F [Cpd 17, {(R)-2-(1H-Indol-3-yl)-1-[4-(4-methoxy-benzyl)-5-phenethyl-4H-[1,2,4]triazol-3-yl]-ethyl}-carbamic acid isobutyl ester]	–	–	–	8.6 nM	0.0%	925 nM	607 nM	0%	21.1 nM	24.8%	no full dose	22.4 ×10⁻⁶ cm/s	10 ×10⁻⁶ cm/s	0.45	31.4 nM	2000 nM	10400 nM	3680 nM	–	–
COc1ccc(Cn2c([C@@H](Cc3ccccc3)NC(C)=O)nnc2[C@@H](Cc2c[nH]c3ccccc23)NC(=O)c2ccccn2)cc1.O=C(O)C(F)(F)F [Cpd 4, Pyridine-2-carboxylic acid [(R)-1-[5-((R)-1-acetylamino-2-phenyl-ethyl)-4-(4-methoxy-benzyl)-4H-[1,2,4]triazol-3-yl]-2-(1H-indol-3-yl)-ethyl]-amide]	2300 nM	3900 nM	no full dose	–	0.0%	–	–	9.1%	–	46.7%	no full dose	1.41 ×10⁻⁶ cm/s	25.4 ×10⁻⁶ cm/s	18	–	–	–	–	239 nM	68.7 nM
